Assay results published in PMC7803973, “Structural basis of malaria parasite phenylalanine tRNA-synthetase inhibition by bicyclic azetidines” (Nature Communications, 2021).
Values joined by “and” are separate entries in the source; they are usually repeats but may differ in a detail not shown here. Equal values may be shown once.

Columns and labels:
[1] = system: Plasmodium falciparum strain 3D7; assay: Parasite growth inhibition (drug susceptibility test, pLDH readout); format: cell-based; settings: 3D7; for IC50: Plasmodium falciparum
Experimental: (§1) The cultivation of P. falciparum was conducted according to Trager’s method with some modification. Precisely, parasites were kept in culture flasks with RPMI1640 medium supplemented with 10% human plasma and 2% fresh human erythrocytes and incubated at 37 °C with the gas condition of 5% CO2 and 5% O2. The parasitemia (percentage of infected erythrocytes to total erythrocytes) were kept within 0.25–10%. Culture medium was replaced, and fresh erythrocytes were supplied every 2–3 days. Drug susceptibility test was conducted according to Desjardins’s method[18] with some modification. […] […] The plates were kept at 37 °C with the gas condition of 5% CO2 and 5% O2 for 72 h and then parasite growth was quantified with Makler’s method to detect plasmdoial lactate dehydrogenase[19] with some modification. Precisely, culture plates were kept in freezer overnight and then thawed at 37 °C to disrupt the erythrocytes and parasite cells. In the new 96-well titer plates, 100 μl of enzyme reaction solution (110 mM Li-lactate, 0.5 mM acetylpyridine-adenine dinucleotide, 50 mM Tris (pH 7.5), 10 mM EDTA, 50 mM KCl, and 15 g l^−1 PEG6000) and 20 µl of freeze-thaw culture were mixed in each well and then kept at room temperature for 30 min. The detection solution was prepared by mixing equal volume of 2 mg ml^−1 nitro blue tetrazolium and 0.1 mg ml^−1 phenazine ethosulfate and 20 µl of the solution was added to each well.

[2] = system: Plasmodium falciparum strain K1; assay: microbe, parasite or virus in culture; format: cell-based; settings: K1; for IC50: Plasmodium falciparum
Experimental: as §1

[3] = system: parasite; design: method as in PMID 27602946; settings: increasing concentrations of L-Phe; cited from earlier work
[4] = system: PfcFRS mutant (L550V); assay: Kinetic parameter (Km) determination, malachite green; format: biochemical, Plasmodium falciparum; settings: PfcFRS-L550V versus PfcFRS WT
Experimental: (§2) In both cases the reaction was carried out for 2 h at 37 °C. Data were fitted to Michaelis–Menten equations using Prism graph 6.0 software.

[5] = system: N[C@@H](Cc1ccccc1)C(=O)O; assay: as above; format: biochemical, Plasmodium falciparum; settings: other: PfcFRS mutant (L550V); ATP saturating 500 μM; pH 7.5; 37.0 °C
Experimental: as §2

[6] = substrate: N[C@@H](Cc1ccccc1)C(=O)O; assay: as above; format: biochemical, Plasmodium falciparum; settings: other: PfcFRS WT; ATP saturating 500 μM; pH 7.5; 37.0 °C
Experimental: as §2

[7] = molecular target: the molecule itself; assay: crystal structure; PvcFRS with BRD1389 and Mg2+, space group P2(1)2(1)2, one αβ heterodimer per asymmetric unit, 3.0 Å
[8] = molecular target: the molecule itself; assay: SEC; purified PvcFRS on a Superdex 200 analytical gel filtration column

Question: With `CCN(CC)CCCC(C)Nc1ccnc2cc(Cl)ccc12` (centres unmarked) [Chloroquine, chloroquine] as the molecule, how does the IC50 [1] read?
Answer: 0.00914 µg/mL and 17.7 nM

Question: What about the IC50 [2] of the same molecule?
Answer: 0.139 µg/mL and 269 nM

Question: Which results are given for `C[C@@H]1CC[C@H]2[C@@H](C)C(=O)O[C@@H]3O[C@@]4(C)CC[C@@H]1[C@]32OO4` [Artemisinin, artemisinin]?
Answer: % Parasite Growth ([1]; 0.000195313 ug/mL): 91.8%; % Parasite Growth ([1]; 0.000390625 ug/mL): 88.1%; % Parasite Growth ([1]; 0.00078125 ug/mL): 90.1%; % Parasite Growth ([1]; 0.0015625 ug/mL): 91.8%; % Parasite Growth ([1]; 0.003125 ug/mL): 91.0%; % Parasite Growth ([1]; 0.00625 ug/mL): 92.6%; % Parasite Growth ([1]; 0.0125 ug/mL): 61.0%; % Parasite Growth ([1]; 0.025 ug/mL): 3.0%; % Parasite Growth ([1]; 0.05 ug/mL): 2.5%; % Parasite Growth ([1]; 0.1 ug/mL): 2.3%; % Parasite Growth ([1]; 0.2 ug/mL): 2.8%; IC50 [1]: 0.0143 µg/mL and 50.5 nM; % Parasite Growth ([2]; 0.000195313 ug/mL): 95.0%; % Parasite Growth ([2]; 0.000390625 ug/mL): 92.3%; % Parasite Growth ([2]; 0.00078125 ug/mL): 92.8%; % Parasite Growth ([2]; 0.0015625 ug/mL): 94.4%; % Parasite Growth ([2]; 0.003125 ug/mL): 92.0%; % Parasite Growth ([2]; 0.00625 ug/mL): 76.5%; % Parasite Growth ([2]; 0.0125 ug/mL): 6.1%; % Parasite Growth ([2]; 0.025 ug/mL): 2.9%; % Parasite Growth ([2]; 0.05 ug/mL): 3.5%; % Parasite Growth ([2]; 0.1 ug/mL): 3.3%; % Parasite Growth ([2]; 0.2 ug/mL): 3.6%; IC50 [2]: 0.00811 µg/mL and 28.7 nM

Question: Which “EC50 shift with L-Phe” value [3] does the source give for `COc1ccc(NC(=O)N2CCCCN3[C@H](CN)[C@H](c4ccc(C#Cc5ccccc5)cc4)[C@@H]3C2)cc1` [BRD1095] here?
Answer: higher EC50 values with increasing concentrations of L-Phe

Question: For `N[C@@H](Cc1ccccc1)C(=O)O` [L-Phe, L-phenylalanine], which “increase in Km value for L-Phe, mutant vs WT” value [4] is on record?
Answer: 10 fold and ~ 10 fold

Question: With “PfcFRS mutant (L550V) (Plasmodium falciparum 3D7; L550V)” as the molecule, how does the Km [5] read?
Answer: 1.85 ± 0.84 µM

B1: PfcFRS wild type (WT) (Plasmodium falciparum 3D7) (protein)
chain: MSTNNVEEKKNEELYNLLNILEEEFNLSKIENKNNNKNDDGDDDDVNKREDNNNNEYYKKLKDEKGLDVLINEYTTSLKISKKYNIDHNKVMGMIKKLETLYYIINLIKSFNTYHLSDEGKQYLKEGSPEFIVIKYVIQNNKCTLEDLKKNLGKIGDIGLNTNLKNRTIQLNKADKCLTCNCNLHDIQDFTQIYLDIINQYGHDEELLFAHLKNKNHTKNALNNNEMKNSCKDNNIINNLIQDLKKRKLLEIKKNSYSHVIKTSIFKKDIKKQITDINYLLLKNEEYKKYDIKKYNFFSSGKKINKGNIHLLTKQMRTFKEIFFSLGFEEMETHNYVESSFWCFDALYIPQQHPSRDLQDTFFIKEPETCIDKFVDTEYIDNIKRVHTHGDYGSFGWNYKWKLEESKKNVLRTHTTANSCRALFKLAKEYKEAGCIKPKKYFSIDRVFRNENLDSTHLAEFHQVEGLIIDKNIGLSHLIGTLAAFYKHIGIHKLKFKPTFNPYTEPSMEIYGYHEQSKKWLEVGNSGIFRPEMLRSMGFSEEVSVIAWGLSLERPTMIKYNIKNIRDLFGYKSVV
Question: With B1 as the molecule, how does the Km [6] read?
Answer: 0.25 ± 0.017 µM

B2: PvcFRS αβ heterodimer as in the crystal (alpha subunit without residues 1-270) (complex, Plasmodium vivax)
chain 1: LTYLLIKNEEYKKYQVKKYNFFSSGKKMNKGNIHLLIRQMRTFKDVFVSLGFEEMNTHNYVESSFWCFDALYIPQQHPSRDLQDTFFIKVPEMCQEEFTDQSYIENVKRVHSVGDYGSFGWNYQWELKSTKKNVLRTHTTANSCRALFQLAKEYQKTGSIIPKKFFSIDRVFRNENLDSTHLAEFHQVEGLIIDRNLGLSHLIGTLSAFYKYIGISKLRFKPTFNPYTEPSMEVYGYHEENKKWLEVGNSGIFRPEMLRAMGFPPEVSVIAWGLSLERPTMIKYSIRNIRDLFGYRSVI
chain 2: MPTISVHEEDLIEKLGEKIEEEKLNDICFEFGIEIDDVEYKGEKKIYKIEVPANRYDLVCVEGLCRALKSFIGKYENVSYALLTNSEEACVKEKHFMRVDESVDERRSYVVSAVLKNVKMNENVYNNIIELQEKLHHNLGKKRILLAIGIHDYDKINFPVAYKFEEKEKINFIPLNETQNVNGNNFINFYQDNINLKSYLKIISDFEKFPVIVDAGGQILSLPPIINCDYTKITYDTRNLFIECTAIDRNKAEIAVNIICSMLSEYCTPKYSIHSFFVQYDKNHKAEKGNGYLYPVFKNKTLTCHMDYVRKLSGILNLSVKDVEPLLKKMMITSKVIDSSTFTVDVPFYRSDIMHFCDIVEDIAIAYGYGNIVSEKIEIAKKNSLSACTELFRNVLAECTYTEVMTNALLSKRENYDCMLRKHRSYDDRKINLDEYNPLAPPVQIMNSKTSEYEIVRTSLIVNMLKFVSANKHRELPLRFFEIGDVSYTTYDRTDTNAVNKRYLSVIFADKFTAGLEEAHGMLETVLKEFQLFSDYKIEEKSKENVAIRSDVFYKLVPKEDPSFLNERVVDIVLCPHNLKFGIMGIIHPKVLENFSIDIPVSVIEINIETIMDVLMM
notes: PvcFRS alpha subunit, Plasmodium vivax, gene PVX_081300; N-terminal domain (residues 1-270) absent in the crystal; PvcFRS beta subunit, Plasmodium vivax, gene PVX_090880, full length; also called heterodimer (αβ); PvcFRS-BRD1389 complex; source: E. coli B834, both subunits co-expressed, purified (Ni-NTA, heparin); crystallised with BRD1389 and MgCl2
Question: Does B2 bind [7]?
Answer: binds

B3: PvcFRS αβ heterodimer (full-length subunits) (complex, Plasmodium vivax)
chain 1: MQAKAQEEQKGEELSQFLQALEEEFALCQEGGGDKREADGPSLENAEAEELANRRAYYLQLKEERNVLVEESKHVTSLHMSSKHNIEHAKVLGMAKKLETLYYVVNHVRSFNTYQLTEEGKEYLRDGSPEHVTLRYVMEQEGCTLEDLKKLFGKKGEIGLNINLKKKKIELRKSDKRLFPHVEGSAHSLVDETRCYLQKVEAHGNDEGALVSHLKGILPPEKGEKKEEDEANNLIKELKKRKLIEAKKISYIYIIRTNLFTKEIKKQITDLTYLLIKNEEYKKYQVKKYNFFSSGKKMNKGNIHLLIRQMRTFKDVFVSLGFEEMNTHNYVESSFWCFDALYIPQQHPSRDLQDTFFIKVPEMCQEEFTDQSYIENVKRVHSVGDYGSFGWNYQWELKSTKKNVLRTHTTANSCRALFQLAKEYQKTGSIIPKKFFSIDRVFRNENLDSTHLAEFHQVEGLIIDRNLGLSHLIGTLSAFYKYIGISKLRFKPTFNPYTEPSMEVYGYHEENKKWLEVGNSGIFRPEMLRAMGFPPEVSVIAWGLSLERPTMIKYSIRNIRDLFGYRSVI
chain 2: MPTISVHEEDLIEKLGEKIEEEKLNDICFEFGIEIDDVEYKGEKKIYKIEVPANRYDLVCVEGLCRALKSFIGKYENVSYALLTNSEEACVKEKHFMRVDESVDERRSYVVSAVLKNVKMNENVYNNIIELQEKLHHNLGKKRILLAIGIHDYDKINFPVAYKFEEKEKINFIPLNETQNVNGNNFINFYQDNINLKSYLKIISDFEKFPVIVDAGGQILSLPPIINCDYTKITYDTRNLFIECTAIDRNKAEIAVNIICSMLSEYCTPKYSIHSFFVQYDKNHKAEKGNGYLYPVFKNKTLTCHMDYVRKLSGILNLSVKDVEPLLKKMMITSKVIDSSTFTVDVPFYRSDIMHFCDIVEDIAIAYGYGNIVSEKIEIAKKNSLSACTELFRNVLAECTYTEVMTNALLSKRENYDCMLRKHRSYDDRKINLDEYNPLAPPVQIMNSKTSEYEIVRTSLIVNMLKFVSANKHRELPLRFFEIGDVSYTTYDRTDTNAVNKRYLSVIFADKFTAGLEEAHGMLETVLKEFQLFSDYKIEEKSKENVAIRSDVFYKLVPKEDPSFLNERVVDIVLCPHNLKFGIMGIIHPKVLENFSIDIPVSVIEINIETIMDVLMM
notes: PvcFRS alpha subunit, Plasmodium vivax, gene PVX_081300, full length; PvcFRS beta subunit, Plasmodium vivax, gene PVX_090880, full length; The heterodimer that pairs with itself to the (αβ)2 heterotetramer in solution; also called heterodimer (αβ); source: E. coli B834, both subunits co-expressed, purified (Ni-NTA, heparin)
Question: For B3, which “stoichiometry N” value [8] is on record?
Answer: 2
